Numbers after ± are expanded uncertainties.

For series [1] the following is noted: 101.33 kPa, Liquid; for viscosity: Capillary tube (Ostwald / Ubbelohde) method; for mass density: Speicific gravity balance.
Series [2] can be described thus: molar heat capacity at constant pressure. The settings on record: 101.33 kPa, Liquid, Vacuum adiabatic calorimetry.
Series [3] in a line: excess molar enthalpy (molar enthalpy of mixing); xn = mol fraction of the nth substance listed. Particulars: 298.15 K; 101.33 kPa; Liquid; Flow calorimetry; x2 = 0.

`COP(=O)([O-])OC.Cn1cc[n+](C)c1` [1,3-dimethylimidazolium dimethylphosphate]: the viscosity (as a rule, the internal friction of a fluid under shear) came out at 271.86 ± 8 mPa·s in series [1] (298.15 K); 188.3 ± 4.5 mPa·s in series [1] (303.15 K); 139.49 ± 2.6 mPa·s in series [1] (308.15 K); 110.25 ± 1.6 mPa·s in series [1] (313.15 K); 84.44 ± 0.88 mPa·s in series [1] (318.15 K); 69.99 ± 0.59 mPa·s in series [1] (323.15 K). In addition, the mass density (as a rule, the mass of a sample divided by its volume) turned out to be 1258.7 ± 1.2 kg/m3 in series [1] (298.15 K); 1255.9 ± 1.2 kg/m3 in series [1] (303.15 K); 1253 ± 1.2 kg/m3 in series [1] (308.15 K); 1249.1 ± 1.2 kg/m3 in series [1] (313.15 K); 1245.2 ± 1.2 kg/m3 in series [1] (318.15 K); 1241.5 ± 1.2 kg/m3 in series [1] (323.15 K). For the same compound, the “molar heat capacity at constant pressure” value is listed as 282.83 ± 13 J/K/mol in series [2] (298.15 K), 296.61 ± 13 J/K/mol in series [2] (303.15 K), 310.83 ± 13 J/K/mol in series [2] (313.15 K) and 321.05 ± 13 J/K/mol in series [2] (323.15 K).

As to `CCO` [ethanol] + COP(=O)([O-])OC.Cn1cc[n+](C)c1, in series [3], the excess molar enthalpy came to 0 ± 0.0086 kcal/mol.

In the case of `CO` [methanol] + COP(=O)([O-])OC.Cn1cc[n+](C)c1, in series [3], the excess molar enthalpy was determined as 0 ± 0.00526 kcal/mol.

On to `O` [water] + COP(=O)([O-])OC.Cn1cc[n+](C)c1, for which the excess molar enthalpy in series [3] was determined as 0 ± 0.055 kcal/mol.
